Results published in article PMC11328113, “Dissecting the functional behavior of the differentially phosphorylated prolyl isomerase, Pin1” (Protein Science : A Publication of the Protein Society, 2024).
Where a SMILES comes first, the peptide text is derived from it. Where no end group is shown, it is not given here. [ ]: non-standard residue; d: D form. The star is where a group is joined. FITC = O=C1OC2(c3ccc(O)cc3Oc3cc(O)ccc32)c2ccc(NC(=S)*)cc21; pS = N[C@@H](COP(=O)(O)O)C(=O)O; Ahx = NCCCCCC(=O)O

What was measured:
Pin1 [1] = molecular target: T1, Pin1 (Homo sapiens, UniProt Q13526); experiment: Fluorescence polarization, FITC-Pintide binding to Pin1; details: fluorescently labelled Pintide 10 nM; FP, room temperature, 5 mM HEPES pH 7.4, 30 mM NaCl, 0.1% Tween20, 1% DMSO; triplicates; read-out: apparent Kd (Pin1 titration to fluorescently labelled Pintide)
T1 construct: His6 (TEV-cleavable) (N, cleaved yes); host or cells: E. coli BL21 (DE3)
T1 sequence (Q13526 whole entry): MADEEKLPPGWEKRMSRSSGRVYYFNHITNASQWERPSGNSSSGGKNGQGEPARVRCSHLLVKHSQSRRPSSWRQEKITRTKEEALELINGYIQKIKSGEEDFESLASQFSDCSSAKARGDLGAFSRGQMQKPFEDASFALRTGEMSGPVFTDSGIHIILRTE
Description: FP experiments were conducted using a fluorescein (FITC)‐labeled “Pintide” [5‐FITC‐(Ahx)‐WFY(pS)PFLE‐CONH2] purchased from China Peptides. FP data were collected at room temperature in buffer containing 5 mM HEPES pH 7.4, 30 mM NaCl, 0.1% v/v Tween20, and 1% v/v DMSO using Corning black, round‐bottom, low‐binding 384‐well plates. For all experiments, a fixed concentration of 10 nM fluorescently labeled Pintide and 40 μM of Pin1 protein was used. All plates were incubated for 10 min and shaken for 10 s before polarization was measured using a CLARIOstar Plus microplate reader with an excitation wavelength of 482/16 nm and an emission wavelength of 530/40 nm; dichroic mirror 504; flashes: 200. All data were analyzed using GraphPad Prism 7, and sigmoidal curves were fitted using the following Equation: Y=Bottom+Top−Bottom/1+10^Logt1/2−X*HillSlope. where Y = mP value, X = time, and Top and bottom = plateaus in mP.
Figure S1. (a) Fluorescence polarisation data for Pin1 titration to fluorescently labelled Pintide (10 nM). The apparent Kd was 0.7 µM. […] (b) Fluorescence polarisation control data showing polarisation, mP values, for the fluorescently labelled Pintide alone (Only Pintide, black), PKA in the presence of Pintide without Pin1 at 1 min and 24 h time points, and Pin1 in the presence of Pintide without PKA at 1 min and 24 h time points. […]

Pin1 [2] = molecular target: T1, Pin1; experiment: Native MS of Pintide bound to differentially phosphorylated Pin1; format: binding; details: for % Pintide bound: 2.5 μM : 25 μM Pin1 : Pintide, 100 mM ammonium acetate, mean ± SD, triplicate
Description: (§1) To phosphorylate Pin1 for the native MS analysis, Pin1 (10 μM) was incubated at 30°C with 2 mM ATP, 10 mM MgCl2 (BDH Laboratory supplies), and 10,000 units PKA in 100 mM ammonium acetate pH 6.8 for 1, 3, 8, and 24 h. The concentration of PKA and Pin1 was optimized in order to detect sequential phosphorylation within the time course. At each time‐point, aliquots were taken, the reaction quenched by addition of EDTA (final concentration 20 mM), and the sample buffer exchanged using 3 kDa Amicon Ultra 0.5 mL centrifugal concentrators into 100 mM ammonium acetate pH 6.8 prior to MS analysis. Phosphorylation assays at each time‐point were carried out in triplicates, and the error was reported as the standard deviation.
Unlabeled Pintide [AcHN‐WFY(pS)PFLE‐CONH2] was purchased from China Peptides and dissolved in 100 mM ammonium acetate pH 8 to a final concentration of 1 mg/mL and stored at −80°C until use. To determine the affinity of […] for differentially phosphorylated Pin1, Pintide was added to each Pin1 phosphorylation time‐point at a 2.5 μM: 25 μM Pin1 to Pintide ratio and the sample was directly infused into the mass spectrometer. Experiments were carried out in triplicates, and the error was reported as the standard deviation.
(§2) All native MS was performed on a QExactive HF mass spectrometer (Thermo Fisher Scientific) equipped with a nanoelectrospray ionization source that used gold‐coated borosilicate glass capillaries, pulled in‐house. Positive ionization mode was used throughout, with the capillary voltage set to 1.2 kV. The source temperature was set at 250°C, in source dissociation at 0, S‐lens RF at 100. The Pin1 concentration was set to 2.5 μM and a mass range of 1500–4000 m/z was acquired. Mass spectra were acquired using a maximum ion injection time of 100 ms. The automatic gain control was set to 1 x 10^6 and the ions detected in the orbitrap with resolution set to 15,000. All data were analyzed using XCalibur (version 4.2). To quantify the abundance of unphosphorylated, phosphorylated Pin1 and Pin1‐Pintide complexes, the relative abundance of the peaks corresponding to the specific 9+, 8+, and 7+ Pin1 species of interest was summed and expressed as a percentage of all Pin1‐containing peaks detected.

Pin1 [3] = molecular target: T1, Pin1; experiment: Chymotrypsin-coupled Pin1 PPIase assay (suc-AEPF-pNA); format: biochemical; details: in the absence of PKA, 4°C, pH 7.8
Description: To perform the FP and enzymatic activity assays, Pin1 was phosphorylated by incubation of 40 μM Pin1 with 10,000 units of cAMP‐dependent protein kinase (PKA) (New England BioLabs) in kinase buffer (50 mM Tris‐HCl, 10 mM MgCl2, 1 mM DTT, and pH 7.5) supplemented with 2 mM adenosine triphosphate (ATP) (New England BioLabs) at 37°C. At 1 min, 1 h, 3 h, 8 h, 12 h, 18 h, 24 h, and 32 h, aliquots were taken, and PKA activity was stopped by addition of 20 mM EDTA, and the samples were kept at −80°C prior to analysis.
Pin1 (phosphorylated or non‐phosphorylated, 80 nM), in buffer containing 35 mM HEPES, pH 7.8, was incubated with 30 mg/mL ice‐cold chymotrypsin (diluted in 1 mM HCl) (Sigma‐Aldrich) and 2.5 mM of PPIase substrate (Suc‐AEPF‐pNA in 460 mM LiCl in trifluoroethanol) (#SAP‐3947‐PI, Vivitide) in a 1 mL cuvette. pNA release was measured at 4°C for 1 min on a Cary 300 UV–visible spectrophotometer using an absorption wavelength at 390 nm.
The data were collected in triplicate and analyzed using GraphPad Prism 7. The data were reported as the mean ± standard error of the mean.

[4] = tested on: cAMP-dependent protein kinase (PKA); experiment: Native MS of Pin1 phosphorylation by PKA; format: biochemical; details: 30°C, pH 6.8, mean ± SD, triplicate
Description: as §1, §2

[5] = tested on: cAMP-dependent protein kinase (PKA); experiment: LC-MS/MS phosphosite occupancy of Pin1 upon incubation with PKA (Lys-C digestion); format: biochemical; details: triplicate
Description: as §1
Phosphorylated Pin1 was digested with either trypsin (Promega) or the endoproteinase Lys‐C (Promega) at a 1:50 ratio of enzyme: protein. To localize the phosphorylation sites, trypsin digestion was performed. To quantify the phosphosite occupancy over the phosphorylation time‐course, differentially phosphorylated Pin1 was digested with Lys‐C. For both enzymatic reactions, Pin1 was digested in 100 mM ammonium bicarbonate pH 8.0 for 3 h at 37°C, and the reaction was quenched by the addition of formic acid (2% v/v final concentration). All peptides were separated using an UltiMate 3000 HPLC series, which was either coupled to a QExactive HF or Orbitrap Eclipse mass spectrometer (Thermo Fisher Scientific). […] To quantify the extent of phosphorylation on Pin1, MS/MS was performed on the QExactive HF mass spectrometer. […]
To quantify the abundance of phosphorylated peptides, the retention time of the eluted peptides was identified using Proteomic Discoverer v.2.5. Spectra were averaged across the peptides chromatographic peak, and the percentage of phosphorylated peptide was calculated as a percentage of the total abundance of unphosphorylated and phosphorylated peptide. Full details of the peptides used for quantitation are detailed in the Supporting Information (Table S4).

[6] = tested on: cAMP-dependent protein kinase (PKA); experiment: LC-MS/MS (EThcD) of additional Pin1 phosphosites after PKA incubation (trypsin digestion); format: biochemical; details: 24 h with PKA, not consistently detected across timepoints
Description: Phosphorylated Pin1 was digested with either trypsin (Promega) or the endoproteinase Lys‐C (Promega) at a 1:50 ratio of enzyme: protein. To localize the phosphorylation sites, trypsin digestion was performed. To quantify the phosphosite occupancy over the phosphorylation time‐course, differentially phosphorylated Pin1 was digested with Lys‐C. For both enzymatic reactions, Pin1 was digested in 100 mM ammonium bicarbonate pH 8.0 for 3 h at 37°C, and the reaction was quenched by the addition of formic acid (2% v/v final concentration). All peptides were separated using an UltiMate 3000 HPLC series, which was either coupled to a QExactive HF or Orbitrap Eclipse mass spectrometer (Thermo Fisher Scientific). Peptides were desalted on a PepMap100 C18 nanoViper trap column (75 μM x 2 cm, […] particle size) (Thermo Fisher Scientific) and separated with a PepMap100 C18 nanoViper analytical column (75 μM x 15 cm, […] particle size) (Thermo Fisher Scientific) using mobile phase A (H2O and 0.1% formic acid) and mobile phase B (100% acetonitrile and 0.1% formic acid) and eluted using a gradient from […] to 44% B over 30 min. The column flow rate was set to 350 nL/min with the column temperature set at 40°C. To quantify the extent of phosphorylation on Pin1, MS/MS was performed on the QExactive HF mass spectrometer. […]
To prevent phospho‐loss resulting in misassignment of the phosphosite location (Boersema et al., [2009]), electron transfer dissociation with supplemental HCD (EThcD) was performed on the trypsin‐digested peptides to localize the phosphosites. […] ETD was performed using an automatically determined reagent time set based on precursor charge state. […] Fragment ions were detected in the Orbitrap using a resolution setting of 30,000. […]
All RAW files were processed and analyzed using Proteome Discoverer version 2.5. […] Additional phosphosites, Ser58, Ser65, and Ser67 (Table S4) were detected after 24 h of incubation with PKA, however, these were not consistently detected across all timepoints and, therefore, were excluded from phosphosite quantitation. […]

[7] = molecular target: Pin1 phosphorylated at Ser71 (singly phosphorylated Pin1) (UniProt Q13526); experiment: fluorescence polarisation; time course: Pin1 (40 uM) incubated with PKA and ATP at 37 C for 1 min to 32 h, stopped with 20 mM EDTA, then 10 nM FITC-Pintide; room temperature, 5 mM HEPES pH 7.4, 30 mM NaCl, 0.1% Tween20, 1% DMSO; control without PKA
Chain of Pin1 phosphorylated at Ser71 (singly phosphorylated Pin1) (Q13526 whole entry): as above

Molecule: CC(C)C[C@H](NC(=O)[C@H](Cc1ccccc1)NC(=O)[C@@H]1CCCN1C(=O)[C@H](COP(=O)(O)O)NC(=O)[C@H](Cc1ccc(O)cc1)NC(=O)[C@H](Cc1ccccc1)NC(=O)[C@H](Cc1c[nH]c2ccccc12)NC(=O)CCCCCNC(=S)Nc1ccc2c(c1)C(=O)OC21c2ccc(O)cc2Oc2cc(O)ccc21)C(=O)N[C@@H](CCC(=O)O)C(N)=O [FITC‐Pintide, 5‐FITC‐(Ahx)‐WFY(pS)PFLE‐CONH2] ({FITC-Ahx}-WFY[pS]PFLE-NH2)
- Kd (Pin1 [1]): 700 nM

Molecule: AcHN‐WFY(pS)PFLE‐CONH2 [Pintide]
- % Pintide bound (Pin1 [2]; 0 phosphosites on Pin1): 39 ± 5%
- % Pintide bound (Pin1 [2]; 1 phosphosite on Pin1, * p <0.05 (ANOVA, Tukey HSD)): 26 ± 6* %
- % Pintide bound (Pin1 [2]; 2 phosphosites on Pin1, ** p <0.01 (ANOVA, Tukey HSD)): 4 ± 1** %
- Pin1 binding to Pintide (Pin1 [2]; Pin1 phosphorylated at Ser71, versus unphosphorylated, native MS): small, yet significant, difference

Molecule: Pin1: peptidyl‐prolyl cis‐trans isomerase comprising N-terminal WW domain and C-terminal PPIase domain
- absorption at 390 nm upon addition of Pin1 to the substrate (catalytic activity) (Pin1 [3]): increased
- relative abundance of doubly phosphorylated Pin1 ([4]; 3 h incubation with PKA): ~ 65 ± 23%
- relative abundance of doubly phosphorylated Pin1 ([4]; 8 h incubation with PKA): 85% ± 11
- relative abundance of Pin1 with two phosphorylation sites ([4]; 24 h incubation with PKA): 95% ± 0.01
- phosphorylation occupancy of Ser16 ([5]; 1 h incubation with PKA): 4%
- phosphorylation occupancy of Ser71 ([5]; 1 h incubation with PKA): ~ 90%
- phosphorylation occupancy of Ser16 ([5]; 24 h incubation with PKA): ~ 80%
- Phosphorylation Stoichiometry (24h), Ser58 [6]: 0.19
- Phosphorylation Stoichiometry (24h), Ser65 [6]: 0.05
- Phosphorylation Stoichiometry (24h), Ser67 [6]: 0.05

Molecule: WFY[pS]PFLE-NH2 (not fully specified (N-terminus); printed as 5‐FITC‐(Ahx)‐WFY(pS)PFLE‐CONH_2_) [FITC-Pintide [5-FITC-(Ahx)-WFY(pS)PFLE-CONH2]]
- % of binding inhibited after 1 h with PKA [7]: 16%
